“And” between values parts separate entries of the source, which are not always exact repeats. Equal values may be shown once. “Also recorded” adds a separate entry of the source.
Key:
[1] = test system: Human influenza A virus subtype /PR/8/34 H1N1; test: microbe, parasite or virus in culture; format: cell-based, Influenza A/PR/8/34 (H1N1); settings: MDCK
[2] = test system: H1N1 virions; format: binding, Influenza A virus (H1N1)
[3] = test system: Candida albicans (ATCC# 96133); test: microbe, parasite or virus in culture; settings: ATCC96133, read-out: IC50 value, adhesion inhibition
[4] = test system: Escherichea coli (ATCC# 53499); test: microbe, parasite or virus in culture; settings: Escherichia coli, ATCC53499, read-out: IC50 value, adhesion inhibition

Compound	IC50 [1]	direct binding to H1N1 virus surface [2]	IC50 [3]	IC50 [4]
NC12CC3CC(CC(C3)C1)C2 [Amantadine]	4.7 µg/mL and 27 µM			
CCOC(=O)C1=C[C@@H](OC(CC)CC)[C@H](NC(C)=O)[C@@H](N)C1 [Oseltamivir]	0.1 µg/mL and 320 nM			
O=C1c2c(O)cc(O)cc2OC(c2cc(O)c(O)c(O)c2)C1O (stereo not drawn) [Tristenonol aglycone, 3,5,7-Trihydroxy-2-(3,4,5-trihydroxyphenyl)-chroman-4-one]	2.8 µg/mL and 5.4 µM	does bind directly to the virus surface; also recorded: bound to the H1N1 virus surface	89.1 µM	60 µM
